Blank lines part the entries; values can stand above or below the compound they belong to.
Experiments:
[1] = molecular target: EGFR in BAF3-DTC (Baf3-19del-T780M-C797S) (Homo sapiens, UniProt P00533, C797S/DEL746-750/T790M); test: EGFR PROTAC HTRF experiment (total EGFR degradation); format: cell-based; settings: BAF3-DTC cells, 16 hours incubation
[2] = molecular target: EGFR in BAF3-LTC (Baf3-L858R-T780M-C797S) (Homo sapiens, UniProt P00533, C797S/L858R/T790M); test: as above; format: cell-based; settings: BAF3-LTC cells, 16 hours incubation
PC-9 = test: Cell antiproliferative assay (CTG, 72 h); format: cell-based; settings: Homo sapiens, PC-9 (EGFR exon 19 deletion)
Experimental: (§1) H1975 has EGFR T790M/L858R dual mutation, PC-9 has EGFR exon 19 deletion mutation, and HCC827 has exon 19 deletion mutation. CellCounting Lite 2.0, Trypsin EDTA, 37 °C CO2 incubator, cell counter, EnVision Serial No.1050454.
(§2) • (A) Trypsin EDTA was used to digest log-phase cells, medium was added to terminate the digestion reaction, and a cell suspension was prepared by blowing and mixing with a pipette. • (B) Cell concentration was determined using Vi-cell, and a suspension of 15,000-25,000 cells per milliliter was made depending on the purpose of the experiment and the characteristics of the cells. • (C) After the cell suspension was ready, it was gently mixed and each well was added with 100µL so that the cell density to be tested was 1,500- 2,500 per well.
(§3) • A) About 2 mg of compound was weighed, and the volume of DMSO required was calculated according to the formula: compound mass (mg)*compound purity (%)/compound molecular weight*1000. • (B) The inoculated cell culture plates were incubated in an incubator. About 24 hours later, compounds were added at gradient concentrations. • (C) 10mM of compound reservoir solution was diluted to […] with medium, and […] of the compound solution was added sequentially to the second column of the deep-well plate, and […] of medium containing 0.5% DMSO was added to the third to eleventh columns. • D) Gradient dilution: 125 µl of solution was pipetted from the second column and added to the third column, after mixing; another 125 µl of solution was pipetted from the third column and added to the fourth column, and the operation was repeated until the tenth column. • (E) 25 µl of compound was pipetted from the deep-well plate into a 96-well culture plate using a multichannel pipette, and each compound was run in triplicate on the 96-well plate. A 1:4 concentration gradient was established on the 96-well plate, with a final highest concentration of 10,000 nM.
(§4) • (A) 96-well plates were incubated in an incubator for 72 h. The effect of the compounds was observed under an inverted microscope. • (B) 25 µl of CTG solution was added to each well. The plate was incubated on a shaker for 10 minutes and the OD value of each well was read.
(§5) The survival rate ( % Cell Viability) was calculated using the following formula: %Cell Viability = 100% × (Lum_Sample−Lum_LC)/(Lum_HC−Lum_LC) [formula] • Lum_HC: Cell reading of 0.1% DMSO control group • Lum_Sample: Cell readings of compound addition group • Lum_LC: Reading of blank medium • IC50 values were obtained by curve fitting using GraphPad Prism 8 software.

HCC827 = test: Cell antiproliferative assay (CTG, 72 h); format: cell-based; settings: Homo sapiens, HCC827 (exon 19 deletion)
Experimental: as §1, §2, §3, §4, §5

H1975 = test: Cell antiproliferative assay (CTG, 72 h); format: cell-based; settings: Homo sapiens, NCI-H1975, H1975 (EGFR T790M/L858R)
Experimental: as §1, §2, §3, §4, §5

[3] = Pharmacokinetic test on male SD rats; format: in vivo; settings: gavage (p.o.), 10 mg/kg, plasma; for AUC(0-inf) / AUC(0-t) / Cmax / MRT last / Tmax: rat, po
Experimental: Healthy adult SD rats, male, a total of 3, 6-8 weeks old; Weighing 200-300 grams.
EDTA-Na2 anticoagulant: 11.2 g of EDTA-Na2 was weighted and placed into a reagent bottle. 100 mL of physiological saline was added and the mixture was shaken until completely dissolved. After preparation, the solution was aliquoted into 1.5 mL centrifuge tubes, each containing approximately 20 uL, for use in whole blood sample collection.
Approximately 10 mg of the test sample was accurately weighed. DMSO accounting for 10% of the total volume was added to dissolve the sample. Subsequently, 0.5% MC solvent accounting for 90% of the total volume was slowly added while stirring. The mixture was sonicated and vortexed evenly, and a visually homogeneous preparation solution was obtained, with a concentration of 1 mg/mL. This solution should be freshly prepared immediately before use.
0.2 mL of the sample was pipetted into a 1.5 mL centrifuge tube and stored at -80°C for concentration analysis of the dosing solution.
Animals were kept in rat cages and fasted for no less than 10 hours on the day before the experiment, but were allowed to drink water. The animals were individually weighed and marked on their tails. Prior to dosing, blank blood samples were collected from each animal via the tail vein.
• Administration route: gavage (p.o.) • Dosage concentration: 1mg/ml • Dosage: 10 mg/kg • Dosage volume: 10 mL/kg
Operation process: The rat was grasped with a left hand protected by a bite-resistant glove and held in an upright position. The gavage needle was inserted through the mouth and advanced towards the pharynx. The needle was advanced gently, ensuring no significant resistance was felt. The drug was then injected into the stomach.
At 0.5 h, 1 h, 2 h, 4 h, 6 h, 8 h, 12 h, and 24 h post-dosing, 0.1-0.2 mL of whole blood was collected from each test animal into EDTA-Na2 anticoagulant tubes. The tubes were mixed by inverting 3-4 times. The samples were centrifuged at 2000 × g and 4 °C for 5 minutes. The upper plasma layer was to separated, promptly transferred to -80 °C for storage until analysis. The blood was collected via tail vein.
A quantitative detection method for the test compound was established using a Shimadzu liquid chromatography system and a Triple Quad™ 6500+ AB mass spectrometry (MS) system. This method was used to analyze the concentration of the parent drug in plasma. The variation of the analysis results was controlled using quality control (QC) samples, and the accuracy of the QC samples was required to be within the range of 80%-120%.
The main pharmacokinetic parameters were calculated using the non-compartmental model (NCA) with the WinNonlin Phoenix software. These parameters include: area under the concentration-time curve (AUC(0-t) and AUC(0-∞)), elimination half-life (T1/2), maximum plasma concentration (Cmax), and time to reach maximum plasma concentration (Tmax), etc.

EGFR in BAF3-LTC (Baf3-L858R-T780M-C797S), sequence (P00533 25-1210 T790M/C797S/L858R): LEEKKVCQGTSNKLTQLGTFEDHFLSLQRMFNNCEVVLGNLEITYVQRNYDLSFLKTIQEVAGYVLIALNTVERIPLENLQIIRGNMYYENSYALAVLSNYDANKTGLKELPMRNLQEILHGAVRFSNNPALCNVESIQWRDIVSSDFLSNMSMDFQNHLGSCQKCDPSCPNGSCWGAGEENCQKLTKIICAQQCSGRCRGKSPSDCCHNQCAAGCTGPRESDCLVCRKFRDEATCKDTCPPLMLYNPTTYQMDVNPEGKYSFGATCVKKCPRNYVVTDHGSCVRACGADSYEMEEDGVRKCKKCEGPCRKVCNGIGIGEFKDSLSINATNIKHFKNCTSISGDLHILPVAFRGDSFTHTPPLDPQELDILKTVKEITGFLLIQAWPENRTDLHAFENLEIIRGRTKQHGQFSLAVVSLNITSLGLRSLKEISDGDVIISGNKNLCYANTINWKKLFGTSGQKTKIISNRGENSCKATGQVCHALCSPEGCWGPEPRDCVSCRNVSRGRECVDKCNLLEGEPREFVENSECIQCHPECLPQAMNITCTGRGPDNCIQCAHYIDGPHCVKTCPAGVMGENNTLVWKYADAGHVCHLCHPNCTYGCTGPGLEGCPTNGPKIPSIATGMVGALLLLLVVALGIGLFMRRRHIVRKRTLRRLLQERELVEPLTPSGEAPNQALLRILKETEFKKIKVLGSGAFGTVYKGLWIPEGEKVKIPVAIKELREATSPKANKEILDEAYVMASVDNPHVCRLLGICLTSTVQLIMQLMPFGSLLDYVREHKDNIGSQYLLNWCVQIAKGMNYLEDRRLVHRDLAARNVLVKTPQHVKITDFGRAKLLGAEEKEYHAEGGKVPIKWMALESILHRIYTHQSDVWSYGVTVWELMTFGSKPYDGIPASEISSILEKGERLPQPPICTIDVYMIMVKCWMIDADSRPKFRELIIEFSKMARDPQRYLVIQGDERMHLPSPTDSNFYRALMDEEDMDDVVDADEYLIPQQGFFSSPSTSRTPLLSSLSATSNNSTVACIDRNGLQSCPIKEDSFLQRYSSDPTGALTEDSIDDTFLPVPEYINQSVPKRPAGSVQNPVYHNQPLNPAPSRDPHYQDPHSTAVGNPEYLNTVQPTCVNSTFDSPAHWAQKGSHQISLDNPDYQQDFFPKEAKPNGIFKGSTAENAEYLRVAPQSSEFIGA
EGFR in BAF3-DTC (Baf3-19del-T780M-C797S), sequence (P00533 with tags, fused parts or gaps DEL746-750/T790M/C797S): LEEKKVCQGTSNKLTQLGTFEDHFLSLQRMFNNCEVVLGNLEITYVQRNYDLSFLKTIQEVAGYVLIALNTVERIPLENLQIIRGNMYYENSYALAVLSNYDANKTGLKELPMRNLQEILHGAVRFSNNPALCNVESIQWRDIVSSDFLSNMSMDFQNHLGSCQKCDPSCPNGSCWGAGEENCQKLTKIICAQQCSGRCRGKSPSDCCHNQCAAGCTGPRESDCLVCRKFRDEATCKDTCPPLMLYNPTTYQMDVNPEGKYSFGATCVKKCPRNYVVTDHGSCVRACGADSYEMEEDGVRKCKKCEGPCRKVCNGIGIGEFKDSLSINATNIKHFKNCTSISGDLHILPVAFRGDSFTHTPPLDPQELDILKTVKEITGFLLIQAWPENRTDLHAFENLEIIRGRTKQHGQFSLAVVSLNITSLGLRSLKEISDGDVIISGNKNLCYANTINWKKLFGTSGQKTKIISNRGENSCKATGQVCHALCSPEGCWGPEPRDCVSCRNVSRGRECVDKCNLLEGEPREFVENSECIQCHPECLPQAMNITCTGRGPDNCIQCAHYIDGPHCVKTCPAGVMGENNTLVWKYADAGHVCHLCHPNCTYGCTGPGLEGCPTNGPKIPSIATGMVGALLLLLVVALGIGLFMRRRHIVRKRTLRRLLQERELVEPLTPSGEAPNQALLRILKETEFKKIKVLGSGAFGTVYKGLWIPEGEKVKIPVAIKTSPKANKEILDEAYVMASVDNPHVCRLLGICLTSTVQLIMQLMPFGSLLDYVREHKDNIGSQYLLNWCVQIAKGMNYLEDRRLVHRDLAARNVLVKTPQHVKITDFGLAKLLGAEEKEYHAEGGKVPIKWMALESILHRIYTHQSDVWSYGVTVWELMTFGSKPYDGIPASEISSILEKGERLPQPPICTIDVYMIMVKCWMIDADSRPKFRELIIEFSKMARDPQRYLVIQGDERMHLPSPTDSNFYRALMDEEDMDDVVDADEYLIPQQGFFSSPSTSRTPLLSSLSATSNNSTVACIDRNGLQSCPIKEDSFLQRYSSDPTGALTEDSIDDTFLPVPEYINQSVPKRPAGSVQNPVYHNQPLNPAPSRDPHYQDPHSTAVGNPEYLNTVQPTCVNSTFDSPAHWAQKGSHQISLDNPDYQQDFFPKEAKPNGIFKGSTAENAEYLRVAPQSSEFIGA

Structure (SMILES): CCc1cc(Nc2ncc(Cl)c(Nc3ccccc3C(=O)NC)n2)c(OC)cc1N1CCN(C(=O)CN2CCC(c3c(F)cc(NC4CCC(=O)NC4=O)cc3F)CC2)CC1 (centres unmarked) [Compound T-068]
DC50 [1]: 10 to 100 nM
Dmax [1]: 70 to 100%
DC50 [2]: 10 to 100 nM
Dmax [2]: 70 to 100%

Structure (SMILES): CCc1cc(Nc2ncc(Cl)c(Nc3ccccc3C(=O)NC)n2)c(OC)cc1N1CCN(C(=O)CN2CCC(c3ccc(NC4CCC(=O)NC4=O)cc3)CC2)[C@@H](C)C1 (some centres unmarked) [Compound T-078]
HL_ [3]: 5.45 h
AUC(0-inf) [3]: 10200 ng·h/mL
AUC(0-t) [3]: 8600 ng·h/mL
Cmax [3]: 714 ng/mL
MRT last [3]: 9.06 h
Tmax [3]: 6 h

Structure (SMILES): COc1cc(N2CCN(C(=O)CN3CCC(c4ccc(NC5CCC(=O)NC5=O)cc4)CC3)CC2)ccc1Nc1ncc(Cl)c(Nc2ccccc2-n2ccnn2)n1 (centres unmarked) [Compound T-007]
DC50 [2]: 100 to 1000 nM
Dmax [2]: 70 to 100%
IC50 (PC-9): 100 to 1000 nM
IC50 (HCC827): 100 to 1000 nM
IC50 (H1975): 10 to 100 nM

Structure (SMILES): CCc1cc(Nc2ncc(Cl)c(Nc3ccccc3C(=O)NC)n2)c(OC)cc1N1CCN(C(=O)CN2CCN(c3ccc4c(N5CCC(=O)NC5=O)nn(C)c4c3)CC2)CC1 [Compound T-045]
IC50 (PC-9): 100 to 1000 nM
IC50 (HCC827): 100 to 1000 nM
IC50 (H1975): 100 to 1000 nM

Structure (SMILES): CCc1cc(Nc2ncc(Cl)c(Nc3ccccc3C(=O)NC)n2)c(OC)cc1N1CCN(C(=O)CN2CCC(c3ccc(NC4CCC(=O)NC4=O)cc3)CC2)[C@H](C)C1 (some centres unmarked) [Compound T-079]
HL_ [3]: 4.02 h
AUC(0-inf) [3]: 7990 ng·h/mL
AUC(0-t) [3]: 7720 ng·h/mL
Cmax [3]: 673 ng/mL
MRT last [3]: 4.67 h
Tmax [3]: 4.67 h
IC50 (PC-9): 100 to 1000 nM
IC50 (HCC827): 100 to 1000 nM
IC50 (H1975): 10 to 100 nM

Structure (SMILES): CNC(=O)c1ccccc1Nc1nc(Nc2ccc(N3CCN(C(=O)CN4CCC(c5ccc6c(N7CCC(=O)NC7=O)nn(C)c6c5)C(F)(F)C4)CC3)cc2OC)ncc1Cl (centres unmarked) [Compound T-047]
IC50 (PC-9): 100 to 1000 nM
IC50 (HCC827): 100 to 1000 nM
IC50 (H1975): 10 to 100 nM

Structure (SMILES): CCc1cc(Nc2ncc(Br)c(Nc3ccccc3C(=O)NC)n2)c(OC)cc1N1CCN(C(=O)CN2CCC(c3ccc4c(N5CCC(=O)NC5=O)nn(C)c4c3)C(F)(F)C2)CC1 (centres unmarked) [Compound T-014]
DC50 [1]: ≤ 10 nM
Dmax [1]: 70 to 100%
DC50 [2]: ≤ 10 nM
Dmax [2]: 70 to 100%
HL_ [3]: 3.37 h
AUC(0-inf) [3]: 4560 ng·h/mL
AUC(0-t) [3]: 4510 ng·h/mL
Cmax [3]: 721 ng/mL
MRT last [3]: 5.88 h
Tmax [3]: 3.33 h

Now from value to compound:

IC50 (PC-9): 100 to 1000 nM
IC50 (HCC827): 10 to 100 nM
IC50 (H1975): < 10 nM
Structure (SMILES): CNC(=O)c1ccccc1Nc1nc(Nc2cc(C)c(N3CCN(C(=O)CN4CCC(c5ccc6c(N7CCC(=O)NC7=O)nn(C)c6c5)C(F)(F)C4)CC3)cc2OC)ncc1Cl (centres unmarked) [Compound T-049]

DC50 [1]: 10 to 100 nM
Dmax [1]: 70 to 100%
DC50 [2]: ≤ 10 nM
Dmax [2]: 70 to 100%
HL_ [3]: 3.09 h
AUC(0-inf) [3]: 6730 ng·h/mL
AUC(0-t) [3]: 6690 ng·h/mL
Cmax [3]: 899 ng/mL
MRT last [3]: 6.27 h
Tmax [3]: 4 h
Structure (SMILES): CCc1cc(Nc2ncc(Cl)c(Nc3ccccc3C(=O)NC)n2)c(OC)cc1N1CCN(C(=O)CN2CCC(c3ccc4c(N5CCC(=O)NC5=O)nn(C)c4c3)C(F)(F)C2)CC1 (centres unmarked) [Compound T-013]

DC50 [1]: 100 to 1000 nM
Dmax [1]: 70 to 100%
DC50 [2]: 10 to 100 nM
Dmax [2]: 70 to 100%
Structure (SMILES): CCc1cc(Nc2ncc(Cl)c(Nc3ccccc3C(=O)NC)n2)c(OC)cc1N1CCN(C(=O)CN2CCC(c3ccc(NC4CCC(=O)NC4=O)cc3C)CC2)CC1 (centres unmarked) [Compound T-090]

DC50 [2]: 100 to 1000 nM
Dmax [2]: 50 to 70%
IC50 (PC-9): 100 to 1000 nM
IC50 (HCC827): 100 to 1000 nM
IC50 (H1975): 10 to 100 nM
Structure (SMILES): COc1cc(N2CCN(C(=O)CN3CCC(c4ccc(NC5CCC(=O)NC5=O)cc4)CC3)CC2)ccc1Nc1ncc(Cl)c(Nc2ccccc2-c2ncc[nH]2)n1 (centres unmarked) [Compound T-011]

HL_ [3]: 3.47 h
AUC(0-inf) [3]: 2090 ng·h/mL
AUC(0-t) [3]: 2060 ng·h/mL
Cmax [3]: 227 ng/mL
MRT last [3]: 7.32 h
Tmax [3]: 5.33 h
Structure (SMILES): COc1cc(N2CCN(C(=O)CN3CCC(c4ccc(NC5CCC(=O)NC5=O)cc4)CC3)CC2)ccc1Nc1ncc(Cl)c(Nc2ccccc2C(C)=O)n1 (centres unmarked) [Control Compound 1, reference compound]

HL_ [3]: 7.97 h
AUC(0-inf) [3]: 20200 ng·h/mL
AUC(0-t) [3]: 16900 ng·h/mL
Cmax [3]: 1120 ng/mL
MRT last [3]: 9.66 h
Tmax [3]: 5.33 h
Structure (SMILES): CCc1cc(Nc2ncc(Cl)c(Nc3ccccc3C(=O)NC)n2)c(OC)cc1N1CCN(C(=O)CN2CCC(c3ccc(NC4CCC(=O)NC4=O)cc3C(F)(F)F)CC2)CC1 (centres unmarked) [Compound T-074]

IC50 (PC-9): 100 to 1000 nM
IC50 (HCC827): 10 to 100 nM
IC50 (H1975): < 10 nM
Structure (SMILES): CCc1cc(Nc2ncc(Cl)c(Nc3ccccc3C(=O)NC)n2)c(OC)cc1N1CCN(C(=O)CN2CCC(c3ccc4c(N5CCC(=O)NC5=O)nn(C)c4c3)CC2)CC1 [Compound T-043]

IC50 (PC-9): 100 to 1000 nM
IC50 (HCC827): 100 to 1000 nM
IC50 (H1975): 100 to 1000 nM
Structure (SMILES): CNC(=O)c1ccccc1Nc1nc(Nc2cc(C)c(N3CCN(C(=O)CC4(O)CCN(c5ccc6c(N7CCC(=O)NC7=O)nn(C)c6c5)CC4)CC3)cc2OC)ncc1Cl [Compound T-086]

— patent EP4714948A1, “COMPOUND USED FOR EGFR PROTEIN DEGRADATION, AND USE THEREOF” (TYK Medicines, Inc., priority 2023, dated 2024)
